The values that follow come from publication PMC11232401, “Characterization of antimalarial activity of artemisinin-based hybrid drugs” (Antimicrobial Agents and Chemotherapy, 2024).

Read-outs that look alike come from different tables or passages of the source.

Data set [1] concerns Ring stages of NF54 strain P. falciparum. Nature of the data set: Antiplasmodial activity of drug combinations (pLDH, isobologram/FIC). The format is cell-based. As to conditions: Plasmodium falciparum, mean (95% CI), tested in parallel with the combination of the same line. As for the experimental part: The activity of the drug combinations against the P. falciparum NF54 strain was determined as described above. In each experiment, drugs were tested alone and in combination. Twofold serial dilutions of the drug solutions were made using fixed molar ratios of 1:1, 1:3, and 3:1 for each combination and using two technical replicates (ranging from 200 to 1.0 nM). Parasite growth was determined by the pLDH method, as described above. IC50 values for each drug alone or in combination were determined, and an isobologram analysis was performed by plotting the fractional inhibitory concentrations (FIC) for each combination and its component drugs separately. Individual FIC values were calculated as the IC50 of the drug combination divided by the IC50 of the drug in isolation. A dashed line was plotted to indicate any additive effect and distinguish antagonism (above the dashed line) from synergism (below the dashed line). Three independent experiments were performed, each one containing two replicates. Each experiment was used to represent an isobologram analysis [mean and 95% confidence interval (CI)].
Values represent one experiment; each concentration of drug combination was tested in technical duplicate. Black dashed line indicates ΣFIC = 1 (absolute additivity). […] FIC index <1 is synergistic, ~1 is additive, and >1 is antagonistic. Nondetrimental interactions are 0.25 <ΣFIC <1.25.
^[a] Values are the mean and 95% confidence interval of one experiment for each concentration of compounds in duplicate.

The subject of data set [2] is P. falciparum. Briefly: Parasite growth inhibition (cell potency). Format: cell-based. As to conditions: Plasmodium falciparum; strain and exposure not stated at the place.
Data set [3] deals with heme (iron II)-initiated β-hematin formation. Nature of the data set: β-hematin inhibitory activity under reducing condition (R-BHIA). Format: biochemical. As to conditions: mean (95% CI). Here is the method: The compounds were dissolved in DMSO and diluted in DMSO to six different concentrations (1.0–32 mM). Hemin (Fe^III[PPIX]Cl) (BioXtra, Sigma-Aldrich) was first dissolved in 0.1 M NaOH and then suspended in an 80:20 vol/vol mixture of DMSO and propionate buffer (0.1 M, pH 5.6) to a stock solution at 8 mM. Reduced glutathione (GSH) was dissolved in 0.1 M NaOH and then adjusted to 10 mM using propionate buffer (0.1 M, pH 5.6). […] Then, 20 µL of the drug was added, and the plates were incubated for 2 h at 37°C. The plastic film was removed after drug incubation, 160 µL propionate buffer (1.0 M, pH 5.6) was added, and plates were incubated for 18 h at 37°C. BHIA under the oxidizing condition (O-BHIA) was prepared in parallel without adding GSH. Controls included wells without drugs and wells containing PBS 1× instead of propionate buffer. Afterward, the plates were centrifuged, the supernatant was discarded, and the pellets of β-hematin crystals were washed twice with pure DMSO and then water. The resulting β-hematin crystals were then dissolved in 200 µL 0.1 M NaOH and diluted to a 1:8 ratio. Aliquots were then transferred into a new plate and read by UV-visible absorbance at […]. Percent of BHIA was calculated in comparison to untreated wells (no drugs), and IC50 was then calculated. Two independent experiments were performed using three replicates of each drug concentration ([46]).
(§1) Figure S6: A summary of IC50 values derived from β-hematin inhibitory activity (BHIA). Footnotes for table: ^[a,b^] Values are mean and 95% confidence interval of one experiment, each concentration in triplicate. ^[a] Using heme (Fe[II]PPIX[Cl]) as a starting reagent. ^[b] Using hematin (Fe[III]PPIX[OH]) as a starting reagent. ^[c] […] CQ = chloroquine. R-BHIA = reducing β-hematin inhibitory activity. O-BHIA = oxidizing β-hematin inhibitory activity.

Data set [4] relates to P. falciparum Dd2 strain. Details: method as in PMID 31290221, PMID 34832911, PMID 38559731. As to conditions: asynchronous culture, SYBR Green I; read-out: IC50 (nM, median ± SEM) for P. falciparum Dd2 strain; cited from earlier work.
Data set [5] concerns P. falciparum 3D7 strain. On the set-up: method as in PMID 31290221, PMID 34832911, PMID 38559731. As to conditions: asynchronous culture, SYBR Green I; read-out: IC50 (nM, median ± SEM) for P. falciparum 3D7 strain; cited from earlier work.
Data set [6] relates to hematin (iron III)-initiated β-hematin formation. Nature of the data set: β-hematin inhibitory activity under oxidizing condition (O-BHIA). The format is biochemical. As to conditions: hematin as starting reagent; mean (95% CI). Here is the method: The compounds were dissolved in DMSO and diluted in DMSO to six different concentrations (1.0–32 mM). Hemin (Fe^III[PPIX]Cl) (BioXtra, Sigma-Aldrich) was first dissolved in 0.1 M NaOH and then suspended in an 80:20 vol/vol mixture of DMSO and propionate buffer (0.1 M, pH 5.6) to a stock solution at 8 mM. Reduced glutathione (GSH) was dissolved in 0.1 M NaOH and then adjusted to 10 mM using propionate buffer (0.1 M, pH 5.6). For β-hematin inhibitory activity (BHIA) under the reducing condition (R-BHIA), hemin (10 µL) and GSH (10 µL) were distributed in a 96-well plate and homogenized, and the plates were sealed using a thin plastic film and incubated for 1 h at 37°C. Then, 20 µL of the drug was added, and the plates were incubated for 2 h at 37°C. The plastic film was removed after drug incubation, 160 µL propionate buffer (1.0 M, pH 5.6) was added, and plates were incubated for 18 h at 37°C. BHIA under the oxidizing condition (O-BHIA) was prepared in parallel without adding GSH. Controls included wells without drugs and wells containing PBS 1× instead of propionate buffer. Afterward, the plates were centrifuged, the supernatant was discarded, and the pellets of β-hematin crystals were washed twice with pure DMSO and then water. The resulting β-hematin crystals were then dissolved in 200 µL 0.1 M NaOH and diluted to a 1:8 ratio. Aliquots were then transferred into a new plate and read by UV-visible absorbance at […]. Percent of BHIA was calculated in comparison to untreated wells (no drugs), and IC50 was then calculated. Two independent experiments were performed using three replicates of each drug concentration ([46]).
as §1

The subject of data set [7] is ring stages of NF54 strain of P. falciparum. Briefly: Exposure time dependence in drug activity (pLDH). Format: cell-based. As to conditions: Plasmodium falciparum. Here is the method:
Each well of 96-well plates was filled with 100 µL drug and 100 µL culture containing ring-stage P. falciparum (NF54 strain) parasites, which were mixed to obtain a final parasitemia of 1.0% to 1.5% and 1.0% hematocrit. Plates were incubated at 37°C in a standard gas mixture. After 3 h and 6 h, plates were centrifuged, cell pellets were washed as described above then returned to the incubator for an additional 69 h and 66 h, respectively. In parallel, the same experiment was left without the washing step, enabling continuous drug exposure throughout. Plates were processed using the pLDH method, and IC50 values were calculated as described above. Three independent experiments were performed using two technical replicates.
Figure S2: Exposure time dependence of antiparasitic activity against ring stages of CQ-sensitive strain NF54 of P. falciparum. Data associated to Figure 2B in the main text of the manuscript. Footnotes for table: ^[a] Synchronized ring-stage parasites were incubated in the presence of compounds at indicated times, drugs were removed by washing, and plates were incubated until 72 h.^[b] Parasites were incubated in the presence of compounds for 72 h. ^[a,b^] Experiments were performed in parallel (paired). Parasite viability was determined by parasite lactate dehydrogenase (pLDH) assay. Data are from three experiments performed in duplicate.^ [c] […] MFQ = mefloquine. DHA = dihydroartemisinin; SEM = standard error of the mean; N.S. = not statistically significant.

The test system of data set [8] is NF54 strain of P. falciparum. Briefly: Ring-stage-specific drug activity (pLDH). The format is cell-based. As to conditions: Plasmodium falciparum, median ± SEM. Here is the method: Each compound was dissolved in dimethyl sulfoxide (DMSO) and diluted in RPMI-1640 medium into seven different concentrations, which were tested against CQ-susceptible strains (NF54 or D10) or a CQ-resistant strain (W2). Each well of 96-well plates was filled with 100 µL drug and 100 µL parasitized RBC (asynchronous parasite culture), which were mixed to obtain a final parasitemia of 1.0% to 1.5% and 1.0% hematocrit. Plates were incubated for 72 h at 37°C in a standard gas mixture; then, parasite growth was determined by measuring the activity of the parasite lactate dehydrogenase (pLDH) ([38]). Briefly, at the end of incubation, the cultures were carefully resuspended, and 20 µL aliquots were removed and added to 100 µL Malstat reagent in a 96-well microplate. The Malstat reagent is made of 0.125% TritonX-100, 130 mM L-lactate, 30 mM Tris buffer, and 0.62 µM 3-acetylpyridine adenine dinucleotide. After that, 20 µL 1.9 µM nitro blue tetrazolium (NBT) and 0.24 µM phenazine ethyl sulfate were added to the plate. NBT was reduced to blueformazan and spectrophotometrically read at OD 650 nm using a Synergy 4 microplate reader (BioTek, Santa Clara, USA). […] IC50 values were expressed as means of two to three independent experiments, with each drug concentration in duplicate.
The NF54 strain of P. falciparum was employed to test the drugs’ activity against ring stages and asynchronous parasite culture (all stages). The ring stages were obtained by synchronization with D-Sorbitol using a standard method ([39]). Each well of 96-well plates was filled with 100 µL each drug and 100 µL culture containing ring-stage or asynchronous parasites, which were mixed to obtain a final parasitemia of 1.0% to 1.5% and 1.0% hematocrit. […] Plates were processed using the pLDH method, and IC50 values were calculated as described above. At least two to three independent experiments were performed, using two technical replicates.
^[a] Synchronized ring-stage parasites were incubated in the presence of compounds for 6 h, drugs were removed by washing, and plates were incubated for an additional 66 h. ^[b] Asynchronous parasites were incubated in the presence of compounds for 6 h, drugs were removed by washing, and plates were incubated for an additional 66 h. ^[c] Asynchronous parasites were incubated in the presence of compounds for 72 h. ^[a,b^] Experiments were performed in parallel. ^[d] […] Parasite viability was determined by parasite lactate dehydrogenase. Data are from three experiments performed in duplicate. MFQ = mefloquine; DHA = dihydroartemisinin; SEM = standard error of the mean.

The conditions of data set [9]: in vivo; cited from earlier work.
In data set [10] the test system is P. berghei-infected mice. Details: method as in PMID 31290221, PMID 34832911, PMID 38559731. As to conditions: Peters test; cited from earlier work.

For the compound `CCN(CC)CCCC(C)Nc1ccnc2cc(Cl)ccc12` (stereo not drawn) [CQ, chloroquine, reference compound], the IC50 (as a rule, the concentration that inhibits the measured activity by half) in data set [1] (NF54, read-out: IC50, Drugs alone, ring stages NF54) is 10.4 nM; in data set [2], 14.5 nM; in [3] (reductive step 10 minutes, read-out: IC50 (µM) values of R-BHIA using heme (iron II), 10 minutes), 189 µM; in data set [3] (reductive step 120 minutes, read-out: IC50 (µM) values of R-BHIA using heme (iron II), 120 minutes) it was 222 µM; in data set [4], 165 ± 16 nM; in data set [5], 12.7 ± 2.5 nM. The same compound displayed an IC50 in data set [6] of 228000 nM.

Turning to `OC(c1cc(C(F)(F)F)nc2c(C(F)(F)F)cccc12)C1CCCCN1` (stereo not drawn) [MFQ, mefloquine, reference compound], the IC50 was 17 nM in data set [1] (NF54, ring stages NF54, read-out: IC50, Drugs alone); 37.2 ± 5.2 nM in data set [7] (NF54, 6 h drug pulse, wash, incubated until 72 h, median ± SEM, read-out: IC50, 6 h + 66 h); 10.3 ± 2.6 nM in data set [7] (NF54, 72 h continuous drug, median ± SEM, read-out: IC50, 72 h); over 600 nM in data set [7] (NF54, read-out: IC50, 3 h + 69 h, 3 h drug pulse, wash, incubated until 72 h, median ± SEM); 61.6 ± 11.9 nM in data set [8] (asynchronous parasites, 6 h drug, wash, additional 66 h, read-out: IC50, Asynchronous); 20.2 ± 1.3 nM in data set [8] (asynchronous parasites, 72 h continuous drug, read-out: IC50, 72 h). Moreover, in data set [8] (synchronized ring stages, 6 h drug, wash, additional 66 h, read-out: IC50, Ring stages), the IC50 turned out to be 37.2 ± 5.2 nM.

As to `CC(C)(N)CNC(=O)C[C@H]1CC[C@]2(CC1)OO[C@]1(O2)C2CC3CC(C2)CC1C3` [OZ277], the “half-life (t1/2)” value in data set [9] was 2 to 4 h.

Regarding `C[C@@H]1CC[C@H]2[C@@H](C)C(=O)O[C@@H]3O[C@@]4(C)CC[C@@H]1[C@]32OO4` [ART, artemisinin], the “In vivo parasitemia reduction (%)” value in data set [10] was 78.5 ± 9.0%. The IC50 in data set [4] is 11.3 ± 1.8 nM; in [5], 26.8 ± 2.4 nM.
